How the values were obtained:
[1] = target: T1, hAT1R (Homo sapiens, UniProt P30556); assay: cell-based; conditions: agonist mode; for EC50: read-out: BRET P63 EC50
T1 sequence (P30556 1-359): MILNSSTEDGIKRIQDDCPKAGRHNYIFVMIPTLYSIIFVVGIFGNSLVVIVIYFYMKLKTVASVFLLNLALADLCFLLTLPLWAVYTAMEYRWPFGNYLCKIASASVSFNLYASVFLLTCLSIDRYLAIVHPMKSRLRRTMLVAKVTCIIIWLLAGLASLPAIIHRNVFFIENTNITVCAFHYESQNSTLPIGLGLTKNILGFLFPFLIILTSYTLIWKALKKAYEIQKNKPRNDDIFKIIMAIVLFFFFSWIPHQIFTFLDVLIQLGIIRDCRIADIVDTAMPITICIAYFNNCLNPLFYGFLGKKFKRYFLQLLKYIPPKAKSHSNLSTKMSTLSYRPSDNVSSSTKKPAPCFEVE

[2] = target: T2, AGTR1 (Homo sapiens, UniProt P30556); assay: DiscoveRx IP1 accumulation assay (HTRF), agonist mode, Pathunter CHO-K1 AGTR1 β-arrestin cell line; type: cell-based; conditions: for EC50: read-out: IP-1 EC50
T2 construct: host or cells: Pathunter CHO-K1 AGTR1 β-arrestin cell line (CHO-K1)
T2 sequence (P30556 1-359): T1 sequence (P30556 1-359)
How it was run: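 Agonist mode in CHO-K1 AGTR1 β-arrestin cells plated 14-16 h before; compounds at varying concentrations for 90 min at 37° C, IP1 accumulation read by HTRF (D2-conjugate and anti-IP1 cryptate, 20 min room temperature). EC50 from 4-parameter logistic fit; activity given as percentage of maximal AII effect.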

[3] = target: T1, hAT1R; assay: cell-based
[4] = target: T2, AGTR1; assay: DiscoveRx β-arrestin2 recruitment assay (enzyme complementation, Pathunter CHO-K1 AGTR1 β-arrestin cell line); type: cell-based; conditions: DiscoveRx β-arrestin2 recruitment; for DiscoveRx β-arrestin2 Ymax (%): maximal response
How it was run: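 CHO-K1 cells expressing AGTR1 with β-arrestin2 enzyme-complementation reporter, plated 14-16 h ahead in 1% serum medium, then exposed to compounds for 90 min at 37° C. Chemiluminescence read after 1 h detection. EC50 (agonist) or IC50 (antagonist) from 4-parameter logistic fit; activity as percentage of All maximal effect.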

[5] = target: T1, hAT1R; assay: BRET β-arrestin2 biosensor assay, higher receptor expression (hAT1R 5 ng/well), HEK293 cells; type: cell-based
[6] = Low AT1R Expression, read-out: BRET β-Arrestin2 Low AT1R Expression EC50
[7] = section of the 42nd table ending at r951, example numbering restarts after the DiscoveRx section, read-out: β-arrestin2 EC50

SMILES: CCCCC1=NC2(CCOC2)C(=O)N1Cc1ccc(-c2cc(-c3ccccc3O)ccc2-c2nnn[nH]2)cc1 (single isomer, unassigned) [Example 150]
- BRET P63 Ymax [1]: 14.6%
- EC50 [1]: 105 nM
- IP-1 Ymax (%) [2]: 17.2%
- EC50 [2]: 20.7 nM
- BRET β-Arrestin2 Low AT1R Expression Ymax (%) ([3]; Low AT1R Expression): 65.7%
- EC50 [3, 6]: 76.9 nM
- EC50 [4]: 13.7 nM
- DiscoveRx β-arrestin2 Ymax (%) [4]: 45.6%

SMILES: CCCCC1=NC2(CCOC2)C(=O)N1Cc1ccc(-c2cc(-c3ccccc3O)ccc2-c2nnn[nH]2)cc1 (single isomer, unassigned) [Example 151]
- BRET P63 Ymax [1]: 11.0%
- EC50 [1]: 174 nM
- IP-1 Ymax (%) [2]: 14.0%
- EC50 [2]: 607 nM
- BRET β-Arrestin2 Low AT1R Expression Ymax (%) ([3]; Low AT1R Expression): 42.5%
- EC50 [3, 6]: 419 nM
- EC50 [4]: 76.4 nM
- DiscoveRx β-arrestin2 Ymax (%) [4]: 44.3%

SMILES: CCCCC1=NC2(CCOC2)C(=O)N1Cc1ccc(-c2cc(-c3cccc(C)c3)ccc2-c2nnn[nH]2)cc1 (single isomer, unassigned) [Example 152]
- EC50 [1]: > 100000 nM
- IP-1 Ymax (%) [2]: 7.0%
- EC50 [2]: 30.7 nM
- EC50 [3, 7]: 21.8 nM
- EC50 [4]: 11.6 nM
- DiscoveRx β-arrestin2 Ymax (%) [4]: 28.6%

SMILES: CCCCC1=NC2(CCOC2)C(=O)N1Cc1ccc(-c2cc(-c3cccc(C)c3)ccc2-c2nnn[nH]2)cc1 (single isomer, unassigned) [Example 153]
- EC50 [1]: > 100000 nM
- IP-1 Ymax (%) [2]: 6.0%
- EC50 [2]: 229 nM
- EC50 [3, 7]: 54.1 nM
- EC50 [4]: 28.7 nM
- DiscoveRx β-arrestin2 Ymax (%) [4]: 19.6%

SMILES: CCCCC1=NC2(CCOC2)C(=O)N1Cc1ccc(-c2cc(-c3cc(C)ccn3)ccc2-c2nnn[nH]2)cc1 (single isomer, unassigned) [Example 154]
- BRET P63 Ymax [1]: 25.3%
- EC50 [1]: 57.7 nM
- IP-1 Ymax (%) [2]: 14.4%
- EC50 [2]: 40.6 nM
- EC50 [3, 7]: 63.9 nM
- EC50 [4]: 14.1 nM
- DiscoveRx β-arrestin2 Ymax (%) [4]: 48.7%

SMILES: CCCC1=NC2(CCOC2)C(=O)N1Cc1ccc(-c2cc(-c3cccc(C)c3)ccc2-c2nnn[nH]2)cc1 (single isomer, unassigned) [Example 159]
- BRET P63 Ymax [1]: 11.5%
- EC50 [1]: 79.3 nM
- IP-1 Ymax (%) [2]: 11.3%
- EC50 [2]: 78.1 nM
- EC50 [3, 7]: 40.3 nM
- EC50 [4]: 51.4 nM
- DiscoveRx β-arrestin2 Ymax (%) [4]: 44.0%

SMILES: CCCC1=NC2(CCOC2)C(=O)N1Cc1ccc(-c2cc(-c3ccccc3O)ccc2-c2nnn[nH]2)cc1 (single isomer, unassigned) [Example 160]
- BRET P63 Ymax [1]: 18.6%
- EC50 [1]: 79.7 nM
- IP-1 Ymax (%) [2]: 15.8%
- EC50 [2]: 132 nM
- EC50 [3, 7]: 98.5 nM
- EC50 [4]: 87.8 nM
- DiscoveRx β-arrestin2 Ymax (%) [4]: 50.2%

SMILES: CCCC1=NC2(CCOC2)C(=O)N1Cc1ccc(-c2cc(-c3ccccc3F)ccc2-c2nnn[nH]2)cc1 (single isomer, unassigned) [Example 161]
- BRET P63 Ymax [1]: 10.9%
- EC50 [1]: 49.6 nM
- IP-1 Ymax (%) [2]: 14.2%
- EC50 [2]: 203 nM
- EC50 [3, 7]: 46.3 nM
- EC50 [4]: 88.5 nM
- DiscoveRx β-arrestin2 Ymax (%) [4]: 40.7%

SMILES: CCCC1=NC2(CCOC2)C(=O)N1Cc1ccc(-c2cc(-c3ccccc3)ccc2-c2nnn[nH]2)cc1 (single isomer, unassigned) [Example 162]
- EC50 [1]: > 10000 nM
- IP-1 Ymax (%) [2]: 8.9%
- EC50 [2]: 235 nM
- EC50 [3, 7]: 373 nM
- EC50 [4]: 147 nM
- DiscoveRx β-arrestin2 Ymax (%) [4]: 31.9%

SMILES: CCCC1=NC2(CCOC2)C(=O)N1Cc1ccc(-c2cc(-c3cccc(C)c3)ccc2-c2nnn[nH]2)cc1 (single isomer, unassigned) [Example 163]
- EC50 [1]: > 10000 nM
- IP-1 Ymax (%) [2]: 7.8%
- EC50 [2]: 181 nM
- EC50 [3, 7]: 91.8 nM
- EC50 [4]: 69.2 nM
- DiscoveRx β-arrestin2 Ymax (%) [4]: 34.6%

SMILES: CCCC1=NC2(CCOC2)C(=O)N1Cc1ccc(-c2cc(-c3ccccc3O)ccc2-c2nnn[nH]2)cc1 (single isomer, unassigned) [Example 164]
- BRET P63 Ymax [1]: 15.6%
- EC50 [1]: 106 nM
- IP-1 Ymax (%) [2]: 17.3%
- EC50 [2]: 231 nM
- EC50 [3, 7]: 160 nM
- EC50 [4]: 76 nM
- DiscoveRx β-arrestin2 Ymax (%) [4]: 58.7%

SMILES: CCC1=NC2(CCOC2)C(=O)N1Cc1ccc(-c2cc(-c3ccccc3)ccc2-c2nn[nH]n2)cc1 (single isomer, unassigned) [Example 165]
- BRET P63 Ymax [1]: 14.1%
- EC50 [1]: 262 nM
- IP-1 Ymax (%) [2]: 17.7%
- EC50 [2]: 192 nM
- EC50 [3, 7]: 281 nM
- EC50 [4]: 56.8 nM
- DiscoveRx β-arrestin2 Ymax (%) [4]: 45.7%

SMILES: CCC1=NC2(CCOC2)C(=O)N1Cc1ccc(-c2cc(-c3cccc(C)c3)ccc2-c2nnn[nH]2)cc1 (single isomer, unassigned) [Example 166]
- BRET P63 Ymax [1]: 22.7%
- EC50 [1]: 65 nM
- IP-1 Ymax (%) [2]: 14.8%
- EC50 [2]: 103 nM
- EC50 [3, 7]: 64.5 nM
- EC50 [4]: 23.1 nM
- DiscoveRx β-arrestin2 Ymax (%) [4]: 47.5%

SMILES: CCc1nc2c(C)cc(C)nc2n1Cc1ccc(-c2cc(N3CCC4(CCOC4)C3)ccc2-c2nn[nH]n2)cc1 (stereo not shown) [Example 92]
- BRET P63 Ymax [1]: 17.8%
- EC50 [1]: 278 nM
- IP-1 Ymax (%) [2]: 51.1%
- EC50 [2]: 1400 nM
- BRET β-Arrestin2 Low AT1R Expression Ymax (%) ([3]; Low AT1R Expression): 66.5%
- EC50 [3, 6]: 309 nM

SMILES: CCCCC1=NC2(CCCC2)C(=O)N1Cc1ccc(-c2cc(-c3cccc(F)c3)ccc2-c2nn[nH]n2)cc1 [Example 127]
- BRET β-Arrestin2 High AT1R Expression Ymax (%) [5]: 82.7%
- EC50 ([5]; High AT1R Expression): 23.6 nM
- EC50 [1]: > 10000 nM
- BRET β-Arrestin2 Low AT1R Expression Ymax (%) ([3]; Low AT1R Expression): 29.5%
- EC50 [3, 6]: 17.3 nM

SMILES: CCc1nc2c(C)cc(C)nc2n1Cc1ccc(-c2cc(-n3cc(C)c(C)n3)ccc2-c2nnn[nH]2)cc1 [Example 223]
- BRET P63 Ymax [1]: 9.8%
- EC50 [1]: 5.9 nM
- EC50 [3, 7]: 9.2 nM

SMILES: CCc1nc2c(C)cc(C)nc2n1Cc1ccc(-c2cc(-n3cc(C(F)(F)F)cn3)ccc2-c2nnn[nH]2)cc1 [Example 224]
- BRET P63 Ymax [1]: 20.8%
- EC50 [1]: 11.3 nM
- EC50 [3, 7]: 7.6 nM

SMILES: CCc1nc2c(C)cc(C)nc2n1Cc1ccc(-c2cc(-c3cn(CC(F)F)nn3)ccc2-c2nnn[nH]2)cc1 [Example 242]
- BRET P63 Ymax [1]: 45.6%
- EC50 [1]: 41.6 nM
- EC50 [3, 7]: 28.2 nM

SMILES: CCc1nc2c(C)cc(C)nc2n1Cc1ccc(-c2cc(Oc3cccc(F)n3)ccc2-c2nn[nH]n2)cc1 [Example 256]
- BRET P63 Ymax [1]: 30.5%
- EC50 [1]: 43 nM
- EC50 [3, 7]: 34.5 nM

SMILES: CCOc1nc2cccc(C(=O)O)c2n1Cc1ccc(-c2cc(-c3ccc(C)cn3)ccc2-c2noc(=O)[nH]2)cc1 [Example 300, 2-ethoxy-1-((5′-(5-methylpyridin-2-yl)-2′-(5-oxo-4,5-dihydro-1,2,4-oxadiazol-3-yl)-[1,1′-biphenyl]-4-yl)methyl)-1H-benzo[d]imidazole-7-carboxylic acid]
- BRET P63 Ymax [1]: 25.1%
- EC50 [1]: 9 nM
- EC50 [3, 7]: 12.8 nM

SMILES: CCOc1nc2cccc(C(=O)O)c2n1Cc1ccc(-c2cc(-c3cc(OC)ccn3)ccc2-c2noc(=O)[nH]2)cc1 [Example 301]
- BRET P63 Ymax [1]: 31.2%
- EC50 [1]: 13.6 nM
- EC50 [3, 7]: 14.8 nM

SMILES: CCOc1nc2cccc(C(=O)O)c2n1Cc1ccc(-c2cc(-c3cccc(C)n3)ccc2-c2noc(=O)[nH]2)cc1 [Example 304]
- BRET P63 Ymax [1]: 17.3%
- EC50 [1]: 29.7 nM
- EC50 [3, 7]: 38.3 nM

SMILES: CCOc1nc2cccc(C(=O)O)c2n1Cc1ccc(-c2cc(-c3cnccn3)ccc2-c2noc(=O)[nH]2)cc1 [Example 307]
- EC50 [1]: > 10000 nM
- EC50 [3, 7]: 962 nM

SMILES: CCOc1nc2cccc(C(=O)O)c2n1Cc1ccc(-c2cc(N3CCC[C@@H](C)C3)ccc2-c2noc(=O)[nH]2)cc1 [Example 325]
- EC50 [1]: > 10000 nM
- EC50 [3, 7]: 201 nM

SMILES: CCOc1nc2cccc(C(=O)O)c2n1Cc1ccc(-c2cc(-n3cc(C)cn3)ccc2-c2nn[nH]n2)cc1 [Example 340]
- BRET P63 Ymax [1]: 17.3%
- EC50 [1]: 2.9 nM
- EC50 [3, 7]: 5.8 nM

SMILES: CCOc1nc2cccc(C(=O)O)c2n1Cc1ccc(-c2cc(-n3cc4ccccc4n3)ccc2-c2nn[nH]n2)cc1 [Example 341]
- BRET P63 Ymax [1]: 18.8%
- EC50 [1]: 4.4 nM
- EC50 [3, 7]: 12.2 nM

SMILES: CCOc1nc2cccc(C(=O)O)c2n1Cc1ccc(-c2cc(-n3ncc4ccccc43)ccc2-c2nn[nH]n2)cc1 [Example 342]
- BRET P63 Ymax [1]: 16.5%
- EC50 [1]: 3.3 nM
- EC50 [3, 7]: 3.6 nM

SMILES: CCOc1nc2cccc(C(=O)O)c2n1Cc1ccc(-c2cc(OC3CCCCC3)ccc2-c2nn[nH]n2)cc1 [Example 343]
- BRET P63 Ymax [1]: 15.3%
- EC50 [1]: 26.7 nM
- EC50 [3, 7]: 26.2 nM

SMILES: CCOc1nc2cccc(C(=O)O)c2n1Cc1ccc(-c2cc(-n3cc(C(C)C)nn3)ccc2-c2nn[nH]n2)cc1 [Example 344]
- BRET P63 Ymax [1]: 10.4%
- EC50 [1]: 16.8 nM
- EC50 [3, 7]: 767 nM

SMILES: CCCCc1nc(Cl)c(C(=O)O)n1Cc1ccc(-c2cc(Oc3cccnc3)ccc2-c2nn[nH]n2)cc1 [Example 428]
- EC50 [1]: > 10000 nM
- EC50 [3, 7]: 122 nM

From patent US12037324B2, “Biarylmethyl heterocycles” (Université de Montréal, priority 2016, dated 2024)
